Assay [1] has as its target ER in T47D cells (Homo sapiens (Human), UniProt P03372). Nature of the assay: In-cell Western (ICW) ER degradation assay in T47D cells. In kind it is cell-based. Particulars: for DC50: ER degradation. The source says:
(§1) In-cell Western (ICW) assays in MCF-7 and T47D cell lines.
(§2) Day 3: After 16 hrs of compounds treatment, cells were fixed by 4% PFA and permeabilized with elution buffer (0.1% Triton X-100 in 1% PBS Solution). Subsequently, cells were blocked with Intercept (PBS) Blocking Buffer (Li-COR, Odyssey Blocking Buffer), and were stained with ER (1:500, Cell signaling) primary antibody for overnight at cold room.
(§3) Day 4: Remove the buffer, add IRDye 800CW Goat anti-Rabbit IgG Secondary Antibody (1:2000) and CellTag 700 Stain (1:500) in Intercept (PBS) Blocking Buffer. Finally, cell plate is placed in incubator to dry. Image and signal were captured on Odyssey® DLx Imaging System.

Assay [2] deals with ER in MCF-7 cells (Homo sapiens (Human), UniProt P03372). Nature of the assay: In-cell Western (ICW) ER degradation assay in MCF-7 cells. Particulars: for DC50: MCF-7, ER degradation, read-out: MCF7 DC50. It is filed as cell-based.
Sequence of ER in MCF-7 cells (P03372 whole entry): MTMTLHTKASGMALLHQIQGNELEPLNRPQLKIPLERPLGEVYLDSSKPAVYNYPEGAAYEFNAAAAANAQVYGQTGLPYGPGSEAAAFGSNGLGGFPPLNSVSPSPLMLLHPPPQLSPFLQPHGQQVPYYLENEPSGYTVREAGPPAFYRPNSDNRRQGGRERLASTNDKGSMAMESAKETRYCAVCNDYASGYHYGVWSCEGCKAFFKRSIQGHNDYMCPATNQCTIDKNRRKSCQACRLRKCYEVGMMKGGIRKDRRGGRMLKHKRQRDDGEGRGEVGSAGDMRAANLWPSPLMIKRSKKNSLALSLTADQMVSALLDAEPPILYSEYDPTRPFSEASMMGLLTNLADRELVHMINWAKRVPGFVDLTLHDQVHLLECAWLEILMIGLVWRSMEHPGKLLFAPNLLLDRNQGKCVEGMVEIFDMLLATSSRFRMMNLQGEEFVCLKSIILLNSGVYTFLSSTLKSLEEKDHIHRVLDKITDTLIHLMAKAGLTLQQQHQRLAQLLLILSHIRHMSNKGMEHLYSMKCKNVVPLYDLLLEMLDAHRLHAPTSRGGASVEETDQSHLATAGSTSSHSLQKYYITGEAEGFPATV
From the text: as §1, §2, §3

The mark [3] stands for this setting: maximal ER degradation, 16 hrs treatment, read-out: T47D Dmax.
[4] abbreviates: MCF7, read-out: MCF7 Dmax, MCF-7, maximal ER degradation, 16 hrs treatment.
Where [5] appears, read: read-out: T47D Dmax, T47D, maximal ER degradation, 16 hrs treatment.
Setting [6] is: MCF7, MCF-7, maximal ER degradation, 16 hrs treatment, read-out: MCF7 Dmax.

Counter-ions that a name gives are not always drawn. Like-named read-outs stand apart in the source and are kept apart here. Some results are limits rather than exact numbers.

Sequence of ER in T47D cells (P03372 whole entry): as above

With `O=C1CC[C@H](NC(=O)c2ccc3c(n2)OC[C@H]2CN(CC4CC5(CCN(c6ccc([C@H]7c8ccc(O)cc8CC[C@H]7c7ccccc7)cn6)CC5)C4)CCN32)C(=O)N1` (single isomer, unassigned) [Compound A114], in assay [1] (16 hrs treatment), the DC50 is over 100 nM. Moreover, the Dmax in assay [1] (setting [3]) is under 25%.

With `COc1cc(N2CCC(CN3CCC4(CC3)COc3cc5c(cc34)CN([C@H]3CCC(=O)NC3=O)C5=O)CC2)ccc1[C@H]1c2ccc(O)cc2CC[C@H]1c1ccccc1` [Compound A38, (R)-3-(1′-((1-(4-((1S,2S)-6-hydroxy-2-phenyl-1,2,3,4-tetrahydronaphthalen-1-yl)-3-methoxyphenyl)piperidin-4-yl)methyl)-7-oxo-5,7-dihydro-2H,6H-spiro[furo[2,3-f]iso-indole-3,4′-piperidin]-6-yl)-piperidine-2,6-dione formate], the Dmax in assay [2] (setting [4]) and in assay [1] (setting [5]) was 25 to 50% each time. Besides, the values for the DC50 in assay [2] (16 hrs treatment) and in assay [1] (16 hrs treatment) were 10 to 100 nM and 1 to 10 nM, respectively.

Consider `O=C1CC[C@H](N2Cc3c(ccc4c3OC[C@H]3CN(CC5CC6(CCN(c7ccc([C@H]8c9ccc(O)cc9CC[C@H]8c8ccccc8)cc7F)CC6)C5)CCN43)C2=O)C(=O)N1` (single isomer, unassigned) [Compound A147], for which the Dmax in assay [2] (setting [6]) and in assay [1] (setting [3]) was over 75% in each case. Also, the half-maximal degradation concentration (DC50) in assay [2] (16 hrs treatment) is under 1 nM; in assay [1] (16 hrs treatment), 1 to 10 nM.

In assay [1] (16 hrs treatment), `O=C1CC[C@H](NC(=O)c2ccc3c(n2)OC[C@H]2CN(CC4CC5(CCN(c6ccc([C@@H]7c8ccc(O)cc8CC[C@@H]7c7ccccc7)cn6)CC5)C4)CCN32)C(=O)N1` (single isomer, unassigned) [Compound A115] came in with a half-maximal degradation concentration (DC50) of 1 to 10 nM. Besides, the Dmax in assay [1] (setting [3]) is over 75%.

Consider `COc1cc([C@H]2c3ccc(O)cc3CC[C@H]2c2ccccc2)c(F)cc1N1CCC2(CC1)CC(CN1CCN3c4ccc5c(c4OC[C@H]3C1)CN([C@H]1CCC(=O)NC1=O)C5=O)C2` (single isomer, unassigned) [Compound A102], for which the DC50 in assay [1] (16 hrs treatment) was in the range of 1 to 10 nM. Also, the Dmax in assay [1] (setting [5]) is over 75%.

With `COc1cc(N2CCC3(CC2)CC(CN2CCC(c4ccc(N[C@@H]5CCC(=O)NC5=O)cc4)CC2)C3)c(F)cc1[C@H]1c2ccc(O)cc2CC[C@H]1c1ccccc1` (single isomer, unassigned) [Compound A46], the Dmax in assay [2] (setting [6]) and in assay [1] (setting [3]) was 25 to 50% in each case. Also, the half-maximal degradation concentration (DC50) in assay [2] (16 hrs treatment) and in assay [1] (16 hrs treatment) was 10 to 100 nM in each case.

Take `O=C1CC[C@H](N2Cc3c(ccc4c3OC[C@H]3CN(CC5CC6(CCN(c7ncc([C@@H]8c9ccc(O)cc9CC[C@@H]8c8ccccc8)cn7)CC6)C5)CCN43)C2=O)C(=O)N1` (single isomer, unassigned) [Compound A140]: the greatest degradation seen (Dmax) in assay [2] (setting [6]) and in assay [1] (setting [3]) was over 75% each time. For the same compound, the DC50 in assay [2] (16 hrs treatment) is under 1 nM; in assay [1] (16 hrs treatment), 1 to 10 nM.

Take `COc1cc([C@@H]2c3ccc(O)cc3CC[C@@H]2c2ccccc2)c(F)cc1N1CCC2(CC1)CC(CN1CCN3c4ccc5c(c4OC[C@H]3C1)CN([C@H]1CCC(=O)NC1=O)C5=O)C2` (single isomer, unassigned) [Compound A103]: the DC50 in assay [1] (16 hrs treatment) was in the range of 10 to 100 nM. Also, the Dmax in assay [1] (setting [5]) lay within 50 to 75%.

Regarding `COc1cc(N2CCC(CN3CCN4c5cc6c(cc5OC[C@@H]4C3)C(=O)N([C@H]3CCC(=O)NC3=O)C6)CC2)ccc1[C@H]1c2ccc(O)cc2CC[C@H]1c1ccccc1` (single isomer, unassigned) [Compound A21], the Dmax in assay [2] (setting [4]) and in assay [1] (setting [3]) was 50 to 75% each time. Besides, the DC50 fell in the range of 10 to 100 nM in assay [2] (16 hrs treatment) and 1 to 10 nM in assay [1] (16 hrs treatment).

In the case of `O=C1CC[C@@H](N2Cc3cc4c(cc3C2=O)OC[C@H]2CN(CC3COC5(C3)CN(c3ccc([C@H]6c7ccc(O)cc7CC[C@H]6c6ccccc6)cc3)C5)CCN42)C(=O)N1` (stereo in doubt) [Compound A8, (3R)-3-((4aR)-3-((2-(4-((1S,2R)-6-hydroxy-2-phenyl-1,2,3,4-tetrahydronaphthalen-1-yl)phenyl)-5-oxa-2-azaspiro[3,4]octan-7-yl)methyl)-8-oxo-1,2,3,4,4a,5,8,10-octahydro-9H-pyrazino[1′,2′: 4,5][1,4]oxazino[2,3-f]isoindol-9-yl)piperidine-2,6-dione], the Dmax in assay [2] (setting [4]) was over 75%. In addition, the DC50 in assay [2] (16 hrs treatment) and in assay [1] (16 hrs treatment) was under 1 nM throughout. The “T47D Dmax” value in assay [1] (maximal ER degradation, 16 hrs treatment) is on record as “A (“A”: >=75%)”.

Take `COc1cc(N2CCC(CN3CCC(c4ccc(N[C@@H]5CCC(=O)NC5=O)cc4F)CC3)CC2)ccc1[C@@H]1c2ccc(O)cc2CC[C@@H]1c1ccccc1` (single isomer, unassigned) [Compound A85]: the results for the Dmax in assay [2] (setting [6]) and in assay [1] (setting [3]) were 25 to 50% and 50 to 75%, respectively. For the same compound, the DC50 in assay [2] (16 hrs treatment) and in assay [1] (16 hrs treatment) was under 1 nM each time.

For the compound `O=C1CC[C@H](N2Cc3cc4c(cc3C2=O)OCC42CCN(CC3CCC4(CC3)CN(c3ccc([C@@H]5c6ccc(O)cc6CC[C@@H]5c5ccccc5)cn3)C4)CC2)C(=O)N1` [Compound A128, (S)-3-(1′-((2-(5-((1S,2S)-6-hydroxy-2-phenyl-1,2,3,4-tetrahydronaphthalen-1-yl)pyridin-2-yl)-2-azaspiro[3.5]nonan-7-yl)methyl)-7-oxo-5,7-dihydro-2H,6H-spiro[furo[2,3-f]isoindole-3,4′-piperidin]-6-yl)piperidine-2,6-dione], in assay [2] (setting [4]), the Dmax lay in the range of 50 to 75%. Besides, the DC50 in assay [2] (16 hrs treatment) lay within 1 to 10 nM.

As to `O=C1CC[C@H](NC(=O)c2ccc3c(n2)OC[C@H]2CN(CC4CCC5(CC4)CN(c4ccc([C@@H]6c7ccc(O)cc7CC[C@@H]6c6ccccc6)cn4)C5)CCN32)C(=O)N1` (single isomer, unassigned) [Compound A127], in assay [2] (setting [6]), the Dmax fell in the range of 50 to 75%. For the same compound, the DC50 in assay [2] (16 hrs treatment) fell in the range of 1 to 10 nM.

Turning to `O=C1CC[C@H](N2Cc3cc4c(cc3C2=O)OCC42CCN(CC3CCN(c4ccc([C@@H]5c6ccc(O)cc6CC[C@@H]5c5ccccc5)cc4)CC3)CC2)C(=O)N1` [Compound A186, (S)-3-(1′-((1-(4-((1R,2S)-6-hydroxy-2-phenyl-1,2,3,4-tetra-hydronaphthalen-1-yl)phenyl)-piperidin-4-yl)methyl)-7-oxo-5,7-dihydro-2H,6H-spiro[furo [2,3-f]isoindole-3,4′-piperidin]-6-yl)piperidine-2,6-dione], in assay [2] (setting [4]), the greatest degradation seen (Dmax) is 50 to 75%. In addition, in assay [2] (16 hrs treatment), the 50% degradation concentration (DC50) was under 1 nM.

`COc1cc(N2CC3(CCC(CN4CCC5(CC4)COc4cc6c(cc45)CN([C@H]4CCC(=O)NC4=O)C6=O)CC3)C2)c(F)cc1[C@H]1c2ccc(O)cc2CC[C@H]1c1ccccc1` [Compound A172, (S)-3-(1′-((2-(2-fluoro-4-((1R,2R)-6-hydroxy-2-phenyl-1,2,3,4-tetrahydronaphthalen-1-yl)-5-methoxyphenyl)-2-azaspiro[3.5]nonan-7-yl)methyl)-7-oxo-5,7-dihydro-2H,6H-spiro[furo[2,3-f]isoindole-3,4′-piperidin]-6-yl)piperidine-2,6-dione]: the Dmax in assay [2] (setting [4]) lay within 25 to 50%. Further, the DC50 in assay [2] (16 hrs treatment) is 10 to 100 nM.

In the case of `O=C1CC[C@H](N2Cc3c(ccc4c3OC[C@H]3CN(C[C@@H]5COC6(CCN(c7ccc([C@@H]8c9ccc(O)cc9CC[C@@H]8c8ccccc8)cn7)CC6)C5)CCN43)C2=O)C(=O)N1` (single isomer, unassigned) [Compound A138], the maximal degradation (Dmax) in assay [2] (setting [6]) is 50 to 75%. Also, in assay [2] (16 hrs treatment), the half-maximal degradation concentration (DC50) is under 1 nM.

With `O=C1CC[C@H](N2Cc3cc4c(cc3C2=O)OCC42CCN(CC3CC4(CCN(c5ccc([C@@H]6c7ccc(O)cc7CC[C@@H]6c6ccccc6)cc5)CC4)C3)CC2)C(=O)N1` [Compound A182, (S)-3-(1′-((7-(4-((1R,2S)-6-hydroxy-2-phenyl-1,2,3,4-tetra-hydronaphthalen-1-yl)phenyl)-7-azaspiro[3.5]nonan-2-yl)-methyl)-7-oxo-5,7-dihydro-2H, 6H-spiro[furo[2,3-f]isoindole-3,4′-piperidin]-6-yl)piperidine-2,6-dione], the Dmax in assay [2] (setting [4]) lay within 50 to 75%. In assay [2] (16 hrs treatment), the half-maximal degradation concentration (DC50) was under 1 nM.

Regarding `O=C1CC[C@H](N2Cc3cc4c(cc3C2=O)OC[C@@H]2CN(CC3CC5(CCN(c6ncc([C@H]7c8ccc(O)cc8CC[C@H]7c7ccccc7)cn6)CC5)C3)CCN42)C(=O)N1` (single isomer, unassigned) [Compound A143], the Dmax in assay [2] (setting [6]) fell in the range of 50 to 75%. The DC50 in assay [2] (16 hrs treatment) lay within 10 to 100 nM.

With `COc1c([C@H]2c3ccc(O)cc3CC[C@H]2c2ccccc2)ccc(N2CCC(CN3CCN4c5cc6c(cc5OC[C@@H]4C3)C(=O)N([C@H]3CCC(=O)NC3=O)C6)CC2)c1F` (single isomer, unassigned) [Compound A170], the Dmax in assay [2] (setting [6]) lay in the range of 25 to 50%. The DC50 in assay [2] (16 hrs treatment) is 10 to 100 nM.

Turning to `COc1cc(N2CCC3(CC2)CC(CN2CCC4(CC2)COc2cc5c(cc24)CN([C@H]2CCC(=O)NC2=O)C5=O)C3)ccc1[C@@H]1c2ccc(O)cc2CC[C@@H]1c1ccccc1` [Compound A162, (S)-3-(1′-((7-(4-((1S,2S)-6-hydroxy-2-phenyl-1,2,3,4-tetrahydronaphthalen-1-yl)-3-methoxyphenyl)-7-azaspiro [3.5]nonan-2-yl)methyl)-7-oxo-5,7-dihydro-2H,6H-spiro[furo [2,3-f]isoindole-3,4′-piperidin]-6-yl)piperidine-2,6-dione], the Dmax in assay [2] (setting [4]) was 25 to 50%. Also, the DC50 in assay [2] (16 hrs treatment) was under 1 nM.

For the compound `O=C1CC[C@H](N2Cc3c(ccc4c3OC[C@H]3CN(CC5COC6(CCN(c7ccc([C@H]8c9ccc(O)cc9CC[C@H]8c8ccccc8)cn7)CC6)C5)CCN43)C2=O)C(=O)N1` (single isomer, unassigned) [Compound A137], the Dmax in assay [2] (setting [6]) is under 25%. In assay [2] (16 hrs treatment), the DC50 lay within 1 to 10 nM.

(Values after patent US20260028354A1, “TETRAHYDRONAPHTHALENE DERIVATIVES AS ESTROGEN RECEPTOR DEGRADERS” (REGENT OF THE UNIVERSITY OF MICHIGAN, priority 2022, published 2026).)
